# Test results reported in ChEMBL document CHEMBL1687773 (Antimicrob Agents Chemother, 2010).
# Calls of active or inactive are those of the source. The rule behind the calls is not given here.
# Legend:
# [1] = test system: Human immunodeficiency virus type 1 reverse transcriptase (Human immunodeficiency virus 1), Q72547 [F227L]; assay: Inhibition of HIV1 histidine-tagged reverse transcriptase F227L mutant activity by primer extension assay
# Homo sapiens [2] = organism: Homo sapiens; assay: Inhibition of human L-type calcium channel verapamil binding site at up to 10 uM
# [3] = test system: Human immunodeficiency virus type 1 reverse transcriptase (Human immunodeficiency virus 1), Q72547 [K103N]; assay: Binding affinity to HIV1 HXB2 reverse transcriptase K103N mutant by protein X-ray crystallography analysis
# [4] = test system: Human immunodeficiency virus 1; assay: Antiviral activity against HIV1 NL4-3 harboring reverse transcriptase K103N mutant infected in human HeLaP4 cells assessed as inhibition of viral replication after 5 days by beta-galactosidase reporter assay; assay type: functional, organism-based; details: Human immunodeficiency virus 1, NL4-3, HeLaP4, 120 h
# [5] = test system: Human immunodeficiency virus 1; assay: Antiviral activity against HIV1 NL4-3 harboring reverse transcriptase F227L mutant infected in human HeLaP4 cells assessed as inhibition of viral replication after 5 days by beta-galactosidase reporter assay; assay type: functional, organism-based
# [6] = test system: Human immunodeficiency virus 1; assay: Ratio of EC50 for wild type HIV1 NL4-3 to EC50 for HIV1 NL4-3 harboring reverse transcriptase V106A mutant; assay type: functional
# [7] = test system: Human immunodeficiency virus 1; assay: Antiviral activity against HIV1 NL4-3 infected in human MT2 cells assessed as inhibition of virus-induced cell death at 0.5 multiplicities of infection after 6 days; assay type: functional, organism-based; details: Human immunodeficiency virus 1, NL4-3, MT2, 144 h
# [8] = target: Adenosine receptor A1 (Homo sapiens) (UniProt P30542); assay: Inhibition of human adenosine A1 receptor at up to 10 uM
# Sequence of Adenosine receptor A1 (Homo sapiens) (P30542 whole entry): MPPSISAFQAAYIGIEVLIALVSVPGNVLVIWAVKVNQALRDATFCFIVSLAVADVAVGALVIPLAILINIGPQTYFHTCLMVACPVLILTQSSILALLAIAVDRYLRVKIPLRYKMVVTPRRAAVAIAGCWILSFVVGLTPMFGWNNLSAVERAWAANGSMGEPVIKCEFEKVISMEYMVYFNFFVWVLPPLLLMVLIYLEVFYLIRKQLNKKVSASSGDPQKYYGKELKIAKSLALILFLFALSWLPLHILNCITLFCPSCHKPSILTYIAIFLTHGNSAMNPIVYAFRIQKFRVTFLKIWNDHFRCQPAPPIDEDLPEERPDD
# [9] = test system: Human immunodeficiency virus 1; assay type: functional, organism-based; details: NL4-3, HeLaP4
# [10] = test system: Human immunodeficiency virus 1; assay: Antiviral activity against HIV1 NL4-3 harboring reverse transcriptase E138K mutant infected in human HeLaP4 cells assessed as inhibition of viral replication after 5 days by beta-galactosidase reporter assay; assay type: functional, organism-based
# HepG2 = assay: Inhibition of DNA synthesis in human HepG2 cells assessed as [3H]-thymidine incorporation at up to 10 uM; assay type: functional, cell-based
# [11] = Ratio of CC30 for human PBL cells to EC90 for HIV1
# [12] = target: Amine oxidase [flavin-containing] A (Homo sapiens, UniProt P21397); assay: Inhibition of human MAO-A at up to 10 uM
# Sequence of Amine oxidase [flavin-containing] A (P21397 whole entry): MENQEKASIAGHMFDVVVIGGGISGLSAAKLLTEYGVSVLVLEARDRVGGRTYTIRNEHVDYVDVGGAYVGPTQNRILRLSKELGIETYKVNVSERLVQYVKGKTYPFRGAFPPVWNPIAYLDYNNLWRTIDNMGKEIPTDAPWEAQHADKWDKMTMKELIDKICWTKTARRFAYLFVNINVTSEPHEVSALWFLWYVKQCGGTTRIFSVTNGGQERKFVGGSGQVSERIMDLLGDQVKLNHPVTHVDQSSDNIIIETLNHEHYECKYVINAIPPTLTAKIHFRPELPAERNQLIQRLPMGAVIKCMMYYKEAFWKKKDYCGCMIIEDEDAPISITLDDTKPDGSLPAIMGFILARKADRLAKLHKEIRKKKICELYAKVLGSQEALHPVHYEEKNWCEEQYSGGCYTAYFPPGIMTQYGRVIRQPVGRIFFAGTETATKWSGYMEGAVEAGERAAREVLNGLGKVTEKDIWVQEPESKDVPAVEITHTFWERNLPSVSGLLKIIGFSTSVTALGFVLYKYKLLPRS
# [13] = test system: Human immunodeficiency virus 1; assay: Antiviral activity against HIV1 NL4-3 harboring reverse transcriptase V108I, H221Y, F227F/L, M230M/I mutant infected in human SupT1 cells derived from 11 viral passages with lersivirine assessed as inhibition of viral replication after 21 days relative to drug sensitive HIV1 NL4-3; assay type: functional, SUP-T1
# [14] = test system: Human immunodeficiency virus 1; assay: Ratio of EC50 for wild type HIV1 NL4-3 to EC50 for HIV1 NL4-3 harboring reverse transcriptase Y181I, Y188L mutant; assay type: functional
# [15] = test system: Human immunodeficiency virus type 1 reverse transcriptase (Human immunodeficiency virus 1), Q72547 [V106A]; assay: Inhibition of HIV1 histidine-tagged reverse transcriptase V106A mutant activity by primer extension assay
# [16] = test system: Human immunodeficiency virus 1; assay: Ratio of EC50 for wild type HIV1 NL4-3 to EC50 for HIV1 NL4-3 harboring reverse transcriptase E138K mutant; assay type: functional
# [17] = test system: Human immunodeficiency virus type 1 reverse transcriptase (Human immunodeficiency virus 1), Q72547 [P236L]; assay: Inhibition of HIV1 histidine-tagged reverse transcriptase P236L mutant activity by primer extension assay
# [18] = target: Amine oxidase [flavin-containing] B (Homo sapiens, UniProt P27338); assay: Inhibition of human MAO-B at up to 10 uM
# Sequence of Amine oxidase [flavin-containing] B (P27338 whole entry): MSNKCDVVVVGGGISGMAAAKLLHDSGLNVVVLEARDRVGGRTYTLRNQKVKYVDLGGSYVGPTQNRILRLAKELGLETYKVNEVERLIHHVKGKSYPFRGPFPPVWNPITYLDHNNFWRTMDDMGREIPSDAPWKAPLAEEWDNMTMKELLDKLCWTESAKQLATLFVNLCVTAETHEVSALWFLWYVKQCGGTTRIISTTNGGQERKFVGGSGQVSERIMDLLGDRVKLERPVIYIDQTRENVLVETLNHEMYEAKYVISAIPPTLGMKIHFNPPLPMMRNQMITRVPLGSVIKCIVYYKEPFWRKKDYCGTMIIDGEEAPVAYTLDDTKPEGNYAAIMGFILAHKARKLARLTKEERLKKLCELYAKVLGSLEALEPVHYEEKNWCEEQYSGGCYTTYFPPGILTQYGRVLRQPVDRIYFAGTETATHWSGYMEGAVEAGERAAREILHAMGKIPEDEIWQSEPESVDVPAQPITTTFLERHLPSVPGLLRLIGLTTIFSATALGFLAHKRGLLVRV
# [19] = test system: Human immunodeficiency virus 1; assay: Antiviral activity against HIV1 NL4-3 harboring reverse transcriptase V108I mutant infected in human HeLaP4 cells assessed as inhibition of viral replication after 5 days by beta-galactosidase reporter assay; assay type: functional, organism-based
# [20] = Inhibition of human phosphodiesterase 4
# [21] = target: Human immunodeficiency virus type 1 reverse transcriptase (Human immunodeficiency virus 1) (UniProt Q72547); assay: Noncovalent binding affinity to wild type recombinant HIV1 HXB2 reverse transcriptase by protein X-ray crystallography analysis
# [22] = test system: Human immunodeficiency virus 1; assay: Antiviral activity against HIV1 NL4-3 harboring reverse transcriptase L100I, K103Q, H221H/Y mutant infected in human SupT1 cells derived from 11 viral passages with efavirenz assessed as inhibition of viral replication after 21 days relative to drug sensitive HIV1 NL4-3; assay type: functional, SUP-T1
# [23] = test system: Human immunodeficiency virus 1; assay type: functional, organism-based; details: NL4-3, HeLaP4; remark: listed apart in the source
# [24] = test system: Human immunodeficiency virus 1; assay: Antiviral activity against HIV1 NL4-3 harboring reverse transcriptase K101E mutant infected in human HeLaP4 cells assessed as inhibition of viral replication after 5 days by beta-galactosidase reporter assay; assay type: functional, organism-based
# [25] = target: 5-hydroxytryptamine receptor 1B (Homo sapiens) (UniProt P28222); assay: Inhibition of human 5-HT1B receptor at up to 10 uM
# Sequence of 5-hydroxytryptamine receptor 1B (Homo sapiens) (P28222 whole entry): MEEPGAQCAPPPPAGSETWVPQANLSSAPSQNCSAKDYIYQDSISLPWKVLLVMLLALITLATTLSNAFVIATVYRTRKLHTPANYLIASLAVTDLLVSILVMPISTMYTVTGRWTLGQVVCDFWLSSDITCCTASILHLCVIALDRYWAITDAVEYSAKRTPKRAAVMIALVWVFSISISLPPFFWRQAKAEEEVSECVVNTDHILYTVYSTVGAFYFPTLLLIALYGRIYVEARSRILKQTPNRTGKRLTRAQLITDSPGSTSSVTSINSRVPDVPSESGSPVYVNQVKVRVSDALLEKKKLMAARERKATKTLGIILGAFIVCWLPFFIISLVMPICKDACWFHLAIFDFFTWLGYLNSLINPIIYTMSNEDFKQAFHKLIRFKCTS
# [26] = test system: Human immunodeficiency virus 1; assay: Ratio of EC50 for wild type HIV1 NL4-3 to EC50 for HIV1 NL4-3 harboring reverse transcriptase M184V mutant; assay type: functional
# [27] = target: 5-hydroxytryptamine receptor 1A (Homo sapiens) (UniProt P08908); assay: Inhibition of human 5-HT1A receptor at up to 10 uM
# Sequence of 5-hydroxytryptamine receptor 1A (Homo sapiens) (P08908 whole entry): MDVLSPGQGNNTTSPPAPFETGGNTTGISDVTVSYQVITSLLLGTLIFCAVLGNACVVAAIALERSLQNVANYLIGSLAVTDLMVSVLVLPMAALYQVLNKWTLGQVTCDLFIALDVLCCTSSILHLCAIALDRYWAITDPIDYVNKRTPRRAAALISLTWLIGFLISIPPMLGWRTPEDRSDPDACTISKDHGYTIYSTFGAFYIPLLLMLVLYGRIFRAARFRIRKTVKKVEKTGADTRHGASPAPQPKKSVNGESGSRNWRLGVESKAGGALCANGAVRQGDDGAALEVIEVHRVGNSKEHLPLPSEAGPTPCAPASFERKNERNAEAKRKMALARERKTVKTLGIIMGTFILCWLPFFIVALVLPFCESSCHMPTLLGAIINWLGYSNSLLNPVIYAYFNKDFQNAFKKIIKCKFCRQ
# [28] = test system: Human immunodeficiency virus 1; assay: Antiviral activity against HIV1 NL4-3 harboring reverse transcriptase V108I, E138K, F227F/L mutant infected in human SupT1 cells derived from 11 viral passages with lersivirine assessed as inhibition of viral replication after 21 days relative to drug sensitive HIV1 NL4-3; assay type: functional, SUP-T1
# Homo sapiens [29] = organism: Homo sapiens; assay: Inhibition of human neuronal nicotinic […] receptor at up to 10 uM
# [30] = test system: Human immunodeficiency virus 1; assay: Ratio of EC50 for wild type HIV1 NL4-3 to EC50 for HIV1 NL4-3 harboring reverse transcriptase F227C mutant; assay type: functional
# [31] = target: Human immunodeficiency virus type 1 reverse transcriptase (Human immunodeficiency virus 1, UniProt Q72547); assay: Mixed non-competitive inhibition of HIV1 reverse transcriptase activity
# [32] = test system: Human immunodeficiency virus 1; assay: Antiviral activity against HIV1 NL4-3 harboring reverse transcriptase M184V mutant infected in human HeLaP4 cells assessed as inhibition of viral replication after 5 days by beta-galactosidase reporter assay; assay type: functional, organism-based
# [33] = target: Adrenergic receptor alpha-1 (Homo sapiens) (UniProt P35348+P25100+P35368); assay: Inhibition of human adrenergic alpha1 receptor at up to 10 uM
# [34] = test system: Human immunodeficiency virus 1; assay: Ratio of EC50 for wild type HIV1 NL4-3 to EC50 for HIV1 NL4-3 harboring reverse transcriptase K103N mutant; assay type: functional
# [35] = test system: Human immunodeficiency virus type 1 reverse transcriptase (Human immunodeficiency virus 1), Q72547 [Y188C]; assay: Inhibition of HIV1 histidine-tagged reverse transcriptase Y188C mutant activity by primer extension assay
# Homo sapiens [36] = organism: Homo sapiens; assay: Inhibition of human tyrosine hydroxylase at up to 10 uM
# [37] = target: Opioid receptors; mu/kappa/delta (Homo sapiens) (UniProt P41145+P41143+P35372); assay: Inhibition of human non-selective opioid receptor at up to 10 uM
# Sequence of Opioid receptors; mu/kappa/delta (Homo sapiens) (P35372 whole entry, looked up): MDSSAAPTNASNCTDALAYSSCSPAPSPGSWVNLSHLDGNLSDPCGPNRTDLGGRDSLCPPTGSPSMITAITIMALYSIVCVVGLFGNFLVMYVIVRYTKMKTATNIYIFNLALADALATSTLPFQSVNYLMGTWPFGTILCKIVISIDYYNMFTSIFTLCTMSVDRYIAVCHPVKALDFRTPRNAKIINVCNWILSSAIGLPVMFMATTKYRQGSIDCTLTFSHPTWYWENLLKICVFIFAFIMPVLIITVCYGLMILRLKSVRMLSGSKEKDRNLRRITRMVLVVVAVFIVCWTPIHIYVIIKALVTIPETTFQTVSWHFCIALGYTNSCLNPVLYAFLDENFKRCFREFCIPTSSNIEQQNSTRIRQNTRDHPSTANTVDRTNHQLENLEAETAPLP
# Sequence of Opioid receptors; mu/kappa/delta (Homo sapiens) (P41143 whole entry, looked up): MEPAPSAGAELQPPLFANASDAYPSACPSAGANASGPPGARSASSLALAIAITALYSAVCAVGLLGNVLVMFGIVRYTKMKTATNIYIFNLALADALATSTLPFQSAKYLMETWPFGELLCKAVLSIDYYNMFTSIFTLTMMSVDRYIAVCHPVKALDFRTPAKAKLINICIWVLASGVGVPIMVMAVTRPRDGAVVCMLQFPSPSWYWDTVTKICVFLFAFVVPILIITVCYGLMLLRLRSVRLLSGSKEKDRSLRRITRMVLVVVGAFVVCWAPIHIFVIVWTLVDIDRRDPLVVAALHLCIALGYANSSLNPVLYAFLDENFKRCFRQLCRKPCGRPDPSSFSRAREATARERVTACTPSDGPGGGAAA
# Sequence of Opioid receptors; mu/kappa/delta (Homo sapiens) (P41145 whole entry, looked up): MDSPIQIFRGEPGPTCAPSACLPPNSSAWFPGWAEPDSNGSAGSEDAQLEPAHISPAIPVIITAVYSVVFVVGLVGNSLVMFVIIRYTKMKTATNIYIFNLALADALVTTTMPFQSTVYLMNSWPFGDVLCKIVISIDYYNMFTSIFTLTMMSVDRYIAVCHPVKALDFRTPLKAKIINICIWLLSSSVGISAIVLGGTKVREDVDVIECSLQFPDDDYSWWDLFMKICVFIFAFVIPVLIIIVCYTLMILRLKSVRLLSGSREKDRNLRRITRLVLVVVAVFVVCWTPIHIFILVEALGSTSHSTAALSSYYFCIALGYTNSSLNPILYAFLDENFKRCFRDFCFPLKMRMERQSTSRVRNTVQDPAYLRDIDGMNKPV
# [38] = test system: Human immunodeficiency virus 1; assay: Ratio of EC50 for wild type HIV1 NL4-3 to EC50 for HIV1 NL4-3 harboring reverse transcriptase Y181I mutant; assay type: functional
structure (smiles),measurement,setting,value
CCc1nn(CCO)c(CC)c1Oc1cc(C#N)cc(C#N)c1 [LERSIVIRINE],inhibition,[1],Active
same,inhibition,Homo sapiens [2],inactive
same,Activity,[3],Active
same,EC50,[4],7.05 nM
same,inhibition,[5],Active
same,Ratio EC50,[6],10
same,EC50,[7],0.5 nM
same,inhibition,[8],inactive
same,inhibition,[9],Active
same,inhibition,[10],Active
same,inhibition,HepG2,inactive
same,Ratio,[11],9818
same,inhibition (INH),[12],Not Active
same,fold change (FC),[13],60.5
same,Ratio EC50,[14],65
same,inhibition,[15],Active
same,Ratio EC50,[16],10
same,inhibition,[17],Active
same,inhibition (INH),[18],Not Active
same,inhibition,[19],Active
same,IC50,[20],3000 nM
same,Activity,[21],Active
same,fold change (FC),[22],5
same,inhibition,[23],Active
same,inhibition,[24],Active
same,inhibition,[25],inactive
same,Ratio EC50,[26],10
same,inhibition,[27],inactive
same,fold change (FC),[28],143
same,inhibition,Homo sapiens [29],inactive
same,Ratio EC50,[30],55
same,Ki,[31],117 nM
same,inhibition,[32],Active
same,inhibition,[33],inactive
same,Ratio EC50,[34],10
same,inhibition,[35],Active
same,inhibition,Homo sapiens [36],inactive
same,inhibition,[37],inactive
same,Ratio EC50,[38],10
